{
  "source": "patent US8293729B2",
  "about": "(Boehringer Ingelheim International GmbH, priority 2009, dated 2012)",
  "molecular_target": "T1, human GPR119 receptor (Homo sapiens, UniProt Q8TDV5, S329A/T327A)",
  "T1 construct": "N-terminal leader […]; expressed in transfected cells",
  "T1 sequence (Q8TDV5 with tags, fused parts or gaps T327A/S329A)": "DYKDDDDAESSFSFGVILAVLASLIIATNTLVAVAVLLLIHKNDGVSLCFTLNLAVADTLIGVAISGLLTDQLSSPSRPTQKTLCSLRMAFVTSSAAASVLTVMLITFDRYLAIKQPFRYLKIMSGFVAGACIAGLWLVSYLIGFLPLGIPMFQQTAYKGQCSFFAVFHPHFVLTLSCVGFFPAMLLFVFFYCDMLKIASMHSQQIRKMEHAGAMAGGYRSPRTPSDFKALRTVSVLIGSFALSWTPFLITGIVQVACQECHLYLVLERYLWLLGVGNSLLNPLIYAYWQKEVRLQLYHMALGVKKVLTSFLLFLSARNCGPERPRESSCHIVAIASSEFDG",
  "assay": "cAMP assay (LANCE cAMP-384) in HEK293 cells stably expressing mutant human GPR119 receptor",
  "assay_type": "cell-based",
  "details": "for activation at 10 µM: HEK293, 20 min",
  "outline": "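Agonist EC50 came from nonlinear regression over 12 concentrations (30 μM–100 pM), with % stimulation at 10 μM where no EC50 was obtained. Cells: stable HEK293 with mutant human GPR119 (T327A/S329A), 20 min compound at 37° C; cAMP read by LANCE kit with standard curve.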",
  "key": {"[1]": {"details": "the 19th table, unit inferred, read-out: EC 50"}, "[2]": {"details": "cAMP accumulation, HEK293 cells stably expressing mutant human GPR119, read-out: EC50"}, "[3]": {"details": "the 43rd table, compounds 75-1 to 75-38, read-out: EC50"}, "[4]": {"details": "single concentration 10 μM, given where no EC50 value could be determined, read-out: % stimulation at 10 μM"}},
  "note": "Where two headings read alike, the source gives them in different places.",
  "data": [
    {"smiles": "CCc1cnc(N2CCC(ON=C3CCN(c4cc(F)c(C(=O)N5CCC[C@H]5CN)cc4F)CC3)CC2)nc1", "note": "[Example 29-133]", "values": [
      {"measurement": "EC50", "setting": "[1]", "result": 164, "unit": "nM"}
    ]},
    {"smiles": "CCc1ncc(CN2CCC(ON=C3CCN(c4ccc(S(C)(=O)=O)cc4F)CC3)CC2)cn1", "note": "[Example 66-49]", "values": [
      {"measurement": "activation at 10 µM", "setting": "at 10 μM, printed in EC50 column of the 36th table, read-out: stimulation in % at 10 μM", "result": 75, "unit": "%"}
    ]},
    {"smiles": "CC(C)OC(=O)N1CCC(ON=C2CCN(c3ncc(C#N)c(N)n3)CC2)CC1", "note": "[Example 2-18]", "values": [
      {"measurement": "EC50", "setting": "[2]", "result": "> 10000", "unit": "nM"}
    ]},
    {"smiles": "CC(C)S(=O)(=O)N1CCC(ON=C2CCN(c3ccc(S(C)(=O)=O)cc3F)CC2)CC1", "note": "[Example 65-16]", "values": [
      {"measurement": "EC50", "setting": "the 34th table, compounds 65-1 to 65-24, read-out: EC50", "result": "> 10000", "unit": "nM"}
    ]},
    {"smiles": "CC(C)OC(=O)N1CCC(ON=C2CCN(c3cc(F)c(C#N)cc3F)CC2)CC1", "note": "[Example 2-2]", "values": [
      {"measurement": "EC50", "setting": "[2]", "result": 397, "unit": "nM"}
    ]},
    {"smiles": "CC(C)OC(=O)N1CCC(ON=C2CCN(c3cc(F)c(CC(=O)NC4CCNC4)cc3F)CC2)CC1", "note": "(centres unmarked) [Example 75-17]", "values": [
      {"measurement": "EC50", "setting": "[3]", "result": 152, "unit": "nM"}
    ]},
    {"smiles": "CC(C)OC(=O)N1CCC(ON=C2CCN(c3cc(F)c(Cn4cnnc4)cc3F)CC2)CC1", "note": "[Example 14-17]", "values": [
      {"measurement": "EC50", "setting": "[2]", "result": 28, "unit": "nM"}
    ]},
    {"smiles": "CC(C)OC(=O)N1CCC(ON=C2CCN(c3cc(F)c(CC(=O)N4CC[C@H](CN)C4)cc3F)CC2)CC1", "note": "[Example 75-15]", "values": [
      {"measurement": "EC50", "setting": "[3]", "result": 29, "unit": "nM"}
    ]},
    {"smiles": "CC(C)OC(=O)N1CCC(ON=C2CCN(c3cc(F)c(C(=O)NCCN)cc3F)CC2)CC1", "note": "[Example 31-2]", "values": [
      {"measurement": "EC50", "setting": "[2]", "result": 348, "unit": "nM"}
    ]},
    {"smiles": "CC(C)OC(=O)N1CCC(ON=C2CCN(c3ccc4c(c3)CCC4=O)CC2)CC1", "note": "[Example 2-38]", "values": [
      {"measurement": "EC50", "setting": "[2]", "result": "> 10000", "unit": "nM"}
    ]},
    {"smiles": "CC(C)OC(=O)N1CCC(ON=C2CCN(c3cc(F)c(-c4nccs4)cc3F)CC2)CC1", "note": "[Example 27-18]", "values": [
      {"measurement": "EC50", "setting": "[2]", "result": 137, "unit": "nM"}
    ]},
    {"smiles": "CNCc1cc(F)c(N2CCC(=NOC3CCN(C(=O)OC(C)C)CC3)CC2)cc1F", "note": "[Example 5-6]", "values": [
      {"measurement": "activation at 10 µM", "setting": "[4]", "result": 78, "unit": "%"}
    ]},
    {"smiles": "CC(C)OC(=O)N1CCC(ON=C2CCN(c3ncccc3F)CC2)CC1", "note": "[Example 2-37]", "values": [
      {"measurement": "EC50", "setting": "[2]", "result": 630, "unit": "nM"}
    ]},
    {"smiles": "CC(C)OC(=O)N1CCC(ON=C2CCN(c3cc(F)c(CC(=O)NC4CCNCC4)cc3F)CC2)CC1", "note": "[Example 75-18]", "values": [
      {"measurement": "EC50", "setting": "[3]", "result": 98, "unit": "nM"}
    ]},
    {"smiles": "CC(C)OC(=O)N1CCC(ON=C2CCN(c3cc(F)c(CC(=O)NCCN)cc3F)CC2)CC1", "note": "[Example 75-24]", "values": [
      {"measurement": "EC50", "setting": "[3]", "result": 410, "unit": "nM"}
    ]},
    {"smiles": "CS(=O)(=O)c1ccc(N2CCC(=NOC3CCN(C(=O)OCCN4CCOCC4)CC3)CC2)c(F)c1", "note": "[Example 64-43]", "values": [
      {"measurement": "EC50", "setting": "the 33rd table, read-out: EC50", "result": "> 10000", "unit": "nM"}
    ]},
    {"smiles": "CN(C)CCCCOC(=O)N1CCC(ON=C2CCN(c3ccc(S(C)(=O)=O)cc3F)CC2)CC1", "note": "[Example 64-21]", "values": [
      {"measurement": "EC50", "setting": "the 33rd table, read-out: EC50", "result": "> 10000", "unit": "nM"}
    ]},
    {"smiles": "[2H]C([2H])(O)c1cc(F)c(N2CCC(=NOC3CCN(C(=O)OC(C)C)CC3)CC2)cc1F", "note": "[Example 48-2]", "values": [
      {"measurement": "EC50", "setting": "the 27th table, read-out: EC50", "result": 18, "unit": "nM"}
    ]},
    {"smiles": "CC(C)OC(=O)N1CCC(ON=C2CCN(c3cc(F)c(CC(=O)NCC4CCN(C)C4)cc3F)CC2)CC1", "note": "(centres unmarked) [Example 75-33]", "values": [
      {"measurement": "EC50", "setting": "[3]", "result": 128, "unit": "nM"}
    ]},
    {"smiles": "CC(C)(C)CCOC(=O)N1CCC(ON=C2CCN(c3ccc(S(C)(=O)=O)cc3F)CC2)CC1", "note": "[Example 64-41]", "values": [
      {"measurement": "EC50", "setting": "the 33rd table, read-out: EC50", "result": 202, "unit": "nM"}
    ]},
    {"smiles": "CC(C)OC(=O)N1CCC(ON=C2CCN(c3cc(F)c(NS(C)(=O)=O)cc3F)CC2)CC1", "note": "[Example 44-1, 4-[1-(2,5-Difluoro-4-methanesulfonylamino-phenyl)-piperidin-4-ylideneaminooxy]-piperidine-1-carboxylic acid isopropyl ester]", "values": [
      {"measurement": "EC50", "setting": "[2]", "result": 170, "unit": "nM"}
    ]},
    {"smiles": "CCc1ccc(N2CCC(ON=C3CCN(c4ccc(S(C)(=O)=O)cc4F)CC3)CC2)nc1", "note": "[Example 67-2]", "values": [
      {"measurement": "EC50", "setting": "the 39th table, compounds 67-1 to 67-3, read-out: EC50", "result": 558, "unit": "nM"}
    ]},
    {"smiles": "Cc1ncccc1COC(=O)N1CCC(ON=C2CCN(c3ccc(S(C)(=O)=O)cc3F)CC2)CC1", "note": "[Example 64-26]", "values": [
      {"measurement": "EC50", "setting": "the 33rd table, read-out: EC50", "result": "> 10000", "unit": "nM"}
    ]},
    {"smiles": "CS(=O)(=O)c1cc(F)c(N2CCC(=NOC3CCN(Cc4ccc(Cl)cc4)CC3)CC2)cc1F", "note": "[Example 66-56]", "values": [
      {"measurement": "EC50", "setting": "the 37th table, compounds 66-52 to 66-64, read-out: EC50", "result": 50, "unit": "nM"}
    ]},
    {"smiles": "COc1ccc(-c2cc(F)c(N3CCC(=NOC4CCN(C(=O)OC(C)C)CC4)CC3)cc2F)cn1", "note": "[Example 27-33]", "values": [
      {"measurement": "EC50", "setting": "[2]", "result": 891, "unit": "nM"}
    ]},
    {"smiles": "CN1CCCC1CCOC(=O)N1CCC(ON=C2CCN(c3ccc(S(C)(=O)=O)cc3F)CC2)CC1", "note": "(centres unmarked) [Example 64-27]", "values": [
      {"measurement": "EC50", "setting": "the 33rd table, read-out: EC50", "result": "> 10000", "unit": "nM"}
    ]},
    {"smiles": "CC(C)OC(=O)N1CCC(ON=C2CCN(c3ncc([N+](=O)[O-])s3)CC2)CC1", "note": "[Example 2-13]", "values": [
      {"measurement": "EC50", "setting": "[2]", "result": 5110, "unit": "nM"}
    ]},
    {"smiles": "CCc1cnc(N2CCC(ON=C3CCN(c4cc(F)c(C(=O)N5CCC(N)CC5)cc4F)CC3)CC2)nc1", "note": "[Example 29-126]", "values": [
      {"measurement": "EC50", "setting": "[1]", "result": 469, "unit": "nM"}
    ]},
    {"smiles": "CC(C)OC(=O)N1CCC(ON=C2CCN(c3nccc(CO)c3F)CC2)CC1", "note": "[Example 2-64]", "values": [
      {"measurement": "activation at 10 µM", "setting": "[4]", "result": 79, "unit": "%"}
    ]}
  ]
}
